Measurements reported in patent publication US8822468B2 (Novartis AG, priority 2008, dated 2014).

Biological target: T1, cMET receptor tyrosine kinase (GST-cMET (969-1390)) (Homo sapiens, UniProt P08581)
T1 construct: made in house
Assay: EPK cMET profiling assay (LanthaScreen TR-FRET antibody based kinase phosphorylation assay)
Type: biochemical
Settings: purified recombinant GST-cMET (969-1390), 2 μM ATP, 50 nM Fluorescein-PolyEAY, 60 minutes at room temperature; read-out: c-Met IC50
Method in brief: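 GST-cMET cytoplasmic domain (969-1390), 0.3 nM, phosphorylated 50 nM fluorescein-PolyEAY with 2 µM ATP, Mg2+/Mn2+, 0.6% DMSO, 60 min at room temperature. Stopped with EDTA; Tb-PY20 antibody TR-FRET single end-point read. Final compound concentrations 10 to 0.003 µM, 8 points.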

T1 sequence (P08581 969-1390): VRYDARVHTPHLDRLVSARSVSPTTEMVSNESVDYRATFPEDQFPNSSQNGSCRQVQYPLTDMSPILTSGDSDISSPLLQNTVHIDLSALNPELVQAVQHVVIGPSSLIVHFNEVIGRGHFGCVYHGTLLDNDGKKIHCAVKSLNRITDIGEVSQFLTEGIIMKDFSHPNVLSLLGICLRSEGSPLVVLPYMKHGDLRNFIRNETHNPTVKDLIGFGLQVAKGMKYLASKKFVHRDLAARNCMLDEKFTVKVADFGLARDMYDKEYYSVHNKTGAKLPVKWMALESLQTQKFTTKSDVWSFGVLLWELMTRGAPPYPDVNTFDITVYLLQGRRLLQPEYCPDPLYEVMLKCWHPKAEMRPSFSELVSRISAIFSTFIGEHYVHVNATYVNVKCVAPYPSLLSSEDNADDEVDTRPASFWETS

Row | SMILES | IC50
1 | Cn1cc(-c2ccc3ncc(Cc4ccc5ncsc5c4)n3n2)cn1 [Example 12, 3-Benzothiazol-6-ylmethyl-6-(1-methyl-1H-pyrazol-4-yl)-imidazo[1,2-b]pyridazine] | 32.5 nM
2 | OCCn1cc(-c2ccc3ncc(Cc4cc5cccnc5cc4Cl)n3n2)cn1 [Example 243, 2-{4-[3-(7-Chloro-quinolin-6-ylmethyl)-imidazo[1,2-b]pyridazin-6-yl]-pyrazol-1-yl}-ethanol] | 37 nM
3 | O[C@@H]1CCN(c2ccc3ncc(Cc4cc5cccnc5cc4F)n3n2)C1 [Example 262, (R)-1-[3-(7-Fluoro-quinolin-6-ylmethyl)-imidazo[1,2-b]pyridazin-6-yl]-pyrrolidin-3-ol] | 42 nM
4 | Clc1cccc(Oc2ccc3ncc(Cc4ccc5ncccc5c4)n3n2)c1 [Example 113, 6-[6-(3-Chloro-phenoxy)-imidazo[1,2-b]pyridazin-3-ylmethyl]-quinoline] | 84 nM
5 | COc1ccc(-c2ccc3ncc(Cc4ccc5ncccc5c4)n3n2)cc1 [Example 35, 6-[6-(4-Methoxy-phenyl)-imidazo[1,2-b]pyridazin-3-ylmethyl]-quinoline] | 79 nM
6 | Cn1cc(-c2ccc3ncc(Cc4ccc5[nH]ncc5c4)n3n2)cn1 [Example 150, 3-(1H-Indazol-5-ylmethyl)-6-(1-methyl-1H-pyrazol-4-yl)-imidazo[1,2-b]pyridazine] | 56 nM
7 | c1cnc2ccc(Cc3cnc4ccc(N5CCC6(CC5)OCCO6)nn34)cc2c1 [Example 110, 6-[6-(1,4-Dioxa-8-aza-spiro[4.5]dec-8-yl)-imidazo[1,2-b]pyridazin-3-ylmethyl]-quinoline] | 42 nM
8 | C[C@@H](c1c(F)cc2ncccc2c1F)c1cnc2ccc(-c3cnn(C)c3)nn12 [Example 192, 5,7-Difluoro-6-{(S)-1-[6-(1-methyl-1H-pyrazol-4-yl)-imidazo[1,2-b]pyridazin-3-yl]-ethyl}-quinoline] | < 3 nM
9 | c1cn2cc(Cc3cnc4ccc(-c5cn[nH]c5)nn34)ccc2n1 [Example 290, 3-Imidazo[1,2-a]pyridin-6-ylmethyl-6-(1H-pyrazol-4-yl)-imidazo[1,2-b]pyridazine] | 120 nM
10 | CCn1cc(-c2ccc3ncc(Cc4ccc5ncccc5c4)n3n2)cn1 [Example 211, 6-[6-(1-Ethyl-1H-pyrazol-4-yl)-imidazo[1,2-b]pyridazin-3-ylmethyl]-quinoline] | 86 nM
11 | O[C@H]1CCN(c2ccc3ncc(Cc4cc5cccnc5cc4F)n3n2)C1 [Example 261, (S)-1-[3-(7-Fluoro-quinolin-6-ylmethyl)-imidazo[1,2-b]pyridazin-6-yl]-pyrrolidin-3-ol] | 120 nM
12 | COCCNc1ccc2ncc(Cc3ccc4ncccc4c3)n2n1 [Example 89, (2-Methoxy-ethyl)-(3-quinolin-6-ylmethyl-imidazo[1,2-b]pyridazin-6-yl)-amine] | 26 nM
13 | Fc1ccc(Nc2ccc3ncc(Cc4ccc5ncccc5c4)n3n2)cc1Cl [Example 137, (3-Chloro-4-fluoro-phenyl)-(3-quinolin-6-ylmethyl-imidazo[1,2-b]pyridazin-6-yl)-amine] | 100 nM
14 | COc1cccc(Nc2ccc3ncc(Cc4ccc5ncccc5c4)n3n2)c1 [Example 140, (3-Methoxy-phenyl)-(3-quinolin-6-ylmethyl-imidazo[1,2-b]pyridazin-6-yl)-amine] | 310 nM
15 | Cn1cc(-c2ccc3ncc(Cc4ccc5[nH]cnc5c4)n3n2)cn1 [Example 162, 3-(1H-Benzoimidazol-5-ylmethyl)-6-(1-methyl-1H-pyrazol-4-yl)-imidazo[1,2-b]pyridazine] | 34 nM
16 | Cn1cc(-c2ccc3ncc(Cc4ccc5ncc(-c6cccnc6)n5c4)n3n2)cn1 [Example 306, 6-(1-Methyl-1H-pyrazol-4-yl)-3-(3-pyridin-3-yl-imidazo[1,2-a]pyridin-6-ylmethyl)-imidazo[1,2-b]pyridazine] | 100 nM
17 | CC(c1cc2cccnc2cc1F)c1cnc2ccc(-c3cnn(C)c3)nn12 (racemic) [Example 253, (rac)-7-Fluoro-6-{1-[6-(1-methyl-1H-pyrazol-4-yl)-imidazo[1,2-b]pyridazin-3-yl]-ethyl}-quinoline] | 13 nM
18 | c1cnc2ccc(Cc3cnc4ccc(-c5ccc6c(c5)CCO6)nn34)cc2c1 [Example 63, 6-[6-(2,3-Dihydro-benzofuran-5-yl)-imidazo[1,2-b]pyridazin-3-ylmethyl]-quinoline] | 190 nM
19 | C[C@@H](c1cc2cccnc2cc1F)c1cnc2ccc(-c3cnn(CCO)c3)nn12 [Example 257] | < 3 nM

Row | SMILES | IC50
20 | Clc1cccc(Nc2ccc3ncc(Cc4ccc5ncccc5c4)n3n2)c1 [Example 121, (3-Chloro-phenyl)-(3-quinolin-6-ylmethyl-imidazo[1,2-b]pyridazin-6-yl)-amine] | 20 nM
21 | Cn1cc(-c2ccc3ncc(Cc4cc5cccnc5cc4Cl)n3n2)cn1 [Example 241, 7-Chloro-6-[6-(1-methyl-1H-pyrazol-4-yl)-imidazo[1,2-b]pyridazin-3-ylmethyl]-quinoline] | 37.5 nM
22 | Cn1cc(-c2ccc3ncc(Cc4cc5cccnc5cc4F)n3n2)cn1 [Example 173, 7-Fluoro-6-[6-(1-methyl-1H-pyrazol-4-yl)-imidazo[1,2-b]pyridazin-3-ylmethyl]-quinoline] | 4 nM
23 | CCOC(=O)c1cccc(-c2ccc3ncc(Cc4ccc5ncccc5c4)n3n2)c1 [Example 60, 3-(3-Quinolin-6-ylmethyl-imidazo[1,2-b]pyridazin-6-yl)-benzoic acid ethyl ester] | 340 nM
24 | N#Cc1cccc(-c2ccc3ncc(Cc4ccc5ncccc5c4)n3n2)c1 [Example 26, 3-(3-Quinolin-6-ylmethyl-imidazo[1,2-b]pyridazin-6-yl)-benzonitrile] | 20 nM
25 | Cn1cc(-c2ccc3ncc(Cc4ccc5c(cnn5C)c4)n3n2)cn1 [Example 276, 3-(1-Methyl-1H-indazol-5-ylmethyl)-6-(1-methyl-1H-pyrazol-4-yl)-imidazo[1,2-b]pyridazine] | 82 nM
26 | CC(c1ccc2ncc(Br)n2c1)c1cnc2ccc(-c3cnn(CCO)c3)nn12 (racemic) [Example 310, (rac)-2-(4-{3-[1-(3-Bromo-imidazo[1,2-a]pyridin-6-yl)-ethyl]-imidazo[1,2-b]pyridazin-6-yl}-pyrazol-1-yl)-ethanol] | 10 nM
27 | Cn1ncc2cc(Cc3cnc4ccc(-c5cnn(C6CCNCC6)c5)nn34)c(F)cc21 [Example 282, 3-(6-Fluoro-1-methyl-1H-indazol-5-ylmethyl)-6-(1-piperidin-4-yl-1H-pyrazol-4-yl)-imidazo[1,2-b]pyridazine] | 87 nM
28 | CC(c1ccc2c(c1)CCCN2)c1cnc2ccc(-c3cnn(C)c3)nn12 (racemic) [Example 156, (rac)-6-{1-[6-(1-Methyl-1H-pyrazol-4-yl)-imidazo[1,2-b]pyridazin-3-yl]-ethyl}-1,2,3,4-tetrahydroquinoline] | 190 nM
29 | Cc1cn(-c2ccc3ncc(Cc4ccc5ncccc5c4)n3n2)cn1 [Example 118, 6-[6-(4-Methyl-imidazol-1-yl)-imidazo[1,2-b]pyridazin-3-ylmethyl]-quinoline] | 220 nM
30 | CN(C)C(=O)c1cccc(-c2ccc3ncc(Cc4ccc5ncccc5c4)n3n2)c1 [Example 59, N,N-Dimethyl-3-(3-quinolin-6-6-ylmethyl-imidazo[1,2-b]pyridazin-6-yl)-benzamide] | 560 nM
31 | c1cnc2ccc(Cc3cnc4ccc(-c5ccc6[nH]ccc6c5)nn34)cc2c1 [Example 45, 6-[6-(1H-Indol-5-yl)-imidazo[1,2-b]pyridazin-3-ylmethyl]-quinoline] | 100 nM
32 | CC(c1cc2cn[nH]c2cc1F)c1cnc2ccc(-c3cnn(C)c3)nn12 (racemic) [Example 164, (rac)-3-[1-(6-Fluoro-1H-indazol-5-yl)-ethyl]-6-(1-methyl-1H-pyrazol-4-yl)-imidazo[1,2-b]pyridazine] | 54 nM
33 | c1cnc2ccc(Cc3cnc4ccc(N5CCCC5)nn34)cc2c1 [Example 85, 6-(6-Pyrrolidin-1-yl-imidazo[1,2-b]pyridazin-3-ylmethyl)-quinoline] | 95 nM
34 | COc1ccc2cc(-c3ccc4ncc(Cc5ccc6ncccc6c5)n4n3)ccc2c1 [Example 40, 6-[6-(6-Methoxy-naphthalen-2-yl)-imidazo[1,2-b]pyridazin-3-ylmethyl]-quinoline] | 130 nM
35 | CC(=O)Nc1cccc(-c2ccc3ncc(Cc4ccc5ncccc5c4)n3n2)c1 [Example 28, N-[3-(3-Quinolin-6-ylmethyl-imidazo[1,2-b]pyridazin-6-yl)-phenyl]-acetamide] | 240 nM
36 | Cn1cc(-c2ccc3ncc(Cc4ccc5ncc(-c6cccc(C#N)c6)n5c4)n3n2)cn1 [Example 305, 3-{6-[6-(1-Methyl-1H-pyrazol-4-yl)-imidazo[1,2-b]pyridazin-3-ylmethyl]-imidazo[1,2-a]pyridin-3-yl}-benzonitrile] | 260 nM
37 | COc1ncc(-c2ccc3ncc(Cc4ccc5ncccc5c4)n3n2)cn1 [Example 56, 6-[6-(2-Methoxy-pyrimidin-5-yl)-imidazo[1,2-b]pyridazin-3-ylmethyl]-quinoline] | 250 nM
